From ChEMBL document CHEMBL3243945, “Antiinflammatory activity of isomeric phenylnaphthaleneacetic acids” (J Med Chem, 1977)

Experiments:
Cavia porcellus = assay: Antiinflammatory activity in depilated albino guinea pig assessed as suppression of UV radiation-induced skin erythema compound administered via gavage measured 2 hrs after UV irradiation exposure; format: functional; conditions: light or radiation study, po, read-out: MED
[1] = Dissociation constant, pKa of the compound in DMF-H2O (6.7% v/v) by titration method; format: physicochemical

Compound: O=C(O)Cc1ccc2cccc(-c3ccccc3)c2c1
- minimal effective dose (Cavia porcellus): > 100 mg/kg
- pKa [1]: 6.8

Compound: O=C(O)Cc1cc(-c2ccccc2)cc2ccccc12
- minimal effective dose (Cavia porcellus): 50 mg/kg
- pKa [1]: 6.7

Compound: O=C(O)Cc1ccc2ccccc2c1-c1ccccc1
- minimal effective dose (Cavia porcellus): > 200 mg/kg
- pKa [1]: 7.2

Compound: O=C(O)Cc1ccc2c(-c3ccccc3)cccc2c1
- minimal effective dose (Cavia porcellus): 3.1 mg/kg
- pKa [1]: 6.6

Compound: Cc1ccc(Cl)c(Nc2ccccc2C(=O)O)c1Cl [MECLOFENAMIC ACID]
- minimal effective dose (Cavia porcellus): 0.4 mg/kg

Compound: O=C(O)Cc1cc(-c2ccccc2)c2ccccc2c1
- minimal effective dose (Cavia porcellus): 100 mg/kg
- pKa [1]: 7

Compound: O=C(O)Cc1cc2ccccc2cc1-c1ccccc1
- minimal effective dose (Cavia porcellus): > 200 mg/kg
- pKa [1]: 7.1

Compound: CCCCC1C(=O)N(c2ccccc2)N(c2ccccc2)C1=O [PHENYLBUTAZONE]
- minimal effective dose (Cavia porcellus): 5.3 mg/kg

Compound: O=C(O)Cc1cccc2c(-c3ccccc3)cccc12
- minimal effective dose (Cavia porcellus): 0.1 mg/kg
- pKa [1]: 6.7

Compound: O=C(O)Cc1cccc2ccc(-c3ccccc3)cc12
- minimal effective dose (Cavia porcellus): 100 mg/kg
- pKa [1]: 6.9

Compound: O=C(O)Cc1cccc2cc(-c3ccccc3)ccc12
- minimal effective dose (Cavia porcellus): 25 mg/kg
- pKa [1]: 6.9

Compound: COc1ccc2c(c1)c(CC(=O)O)c(C)n2C(=O)c1ccc(Cl)cc1 [INDOMETHACIN]
- minimal effective dose (Cavia porcellus): 1.7 mg/kg

Compound: O=C(O)Cc1ccc2ccc(-c3ccccc3)cc2c1
- minimal effective dose (Cavia porcellus): > 50 mg/kg
- pKa [1]: 6.7

Compound: O=C(O)Cc1c(-c2ccccc2)ccc2ccccc12
- minimal effective dose (Cavia porcellus): > 50 mg/kg
- pKa [1]: 6.9

Compound: O=C(O)Cc1ccc2cc(-c3ccccc3)ccc2c1
- minimal effective dose (Cavia porcellus): 3.1 mg/kg
- pKa [1]: 6.6

Compound: O=C(O)Cc1ccc(-c2ccccc2)c2ccccc12
- minimal effective dose (Cavia porcellus): 0.1 mg/kg
- pKa [1]: 6.8
